Test system: Chlorella protothecoides
Assay: Growth of Chlorella protothecoides in glycerol supplemented media: growth and total lipid yield
Assay type: cell-based
Conditions: glycerol supplemented medium
Text: Note that Chlorella protothecoides growth is enhanced by glycerol; a byproduct of biodiesel.

In the case of OCC(O)CO [glycerol], the increase in growth was “at least 10 fold” and the total lipid yield was “enhanced”.

Source: US20100317073A1, “MOLECULAR APPROACHES FOR THE OPTIMIZATION OF BIOFUEL PRODUCTION” (The Ohio State University Research Foundation, priority 2007, published 2010)
